Source: ChEMBL document CHEMBL4507316 (2021)
pKi: −log10 of the molar value.

Columns and labels:
[1] = biological target: Cyclin-dependent kinase 9 (Homo sapiens) (UniProt P50750); experiment: CDK9/CycT ProQinase selectivity panel; conditions: Compound concentration 1.0 uM
[2] = biological target: Serine/threonine-protein kinase SIK2 (Homo sapiens) (UniProt Q9H0K1); experiment: SNF1LK2 ProQinase selectivity panel; conditions: Compound concentration 1.0 uM
[3] = biological target: Eukaryotic translation initiation factor 2-alpha kinase 1 (Homo sapiens) (UniProt Q9BQI3); experiment: HRI ProQinase selectivity panel; conditions: Compound concentration 1.0 uM
[4] = biological target: Histamine H3 receptor (Homo sapiens) (UniProt Q9Y5N1); conditions: Compound concentration 10.0 uM
[5] = biological target: Ephrin type-A receptor 4 (Homo sapiens) (UniProt P54764); experiment: EPHA4 ProQinase selectivity panel; conditions: Compound concentration 1.0 uM
[6] = tested on: Platelet-derived growth factor receptor alpha (Homo sapiens), P16234 [D842V]; experiment: PDGFR-alpha D842V ProQinase selectivity panel; conditions: Compound concentration 1.0 uM
[7] = biological target: RAC-gamma serine/threonine-protein kinase (Homo sapiens) (UniProt Q9Y243); experiment: AKT3 ProQinase selectivity panel; conditions: Compound concentration 1.0 uM
[8] = biological target: Protein kinase C delta type (Homo sapiens) (UniProt Q05655); experiment: PKC-delta ProQinase selectivity panel; conditions: Compound concentration 1.0 uM
[9] = tested on: Proto-oncogene tyrosine-protein kinase receptor Ret (Homo sapiens), P07949 [Y791F]; experiment: RET Y791F ProQinase selectivity panel; conditions: Compound concentration 1.0 uM
[10] = tested on: Tyrosine-protein kinase ABL1 (Homo sapiens), P00519 [M351T]; experiment: ABL1 M351T ProQinase selectivity panel; conditions: Compound concentration 1.0 uM
[11] = biological target: Receptor-type tyrosine-protein kinase FLT3 (Homo sapiens) (UniProt P36888); experiment: FLT3 wt ProQinase selectivity panel; conditions: Compound concentration 1.0 uM
[12] = biological target: GABA-A receptor; anion channel (Rattus norvegicus) (UniProt O09028+P15431+P18506+P18508+P19969+P20236+P23574+P23576+P28471+P28473+P30191+P62813+P63079+P63138+Q91ZM7+Q9ES14); conditions: Compound concentration 10.0 uM
[13] = biological target: T1, Cyclin-dependent kinase 5/CDK5 activator 1 (Homo sapiens) (UniProt Q00535+Q15078); experiment: CDK5/p25NCK ProQinase selectivity panel; type: protein-complex assay; conditions: Compound concentration 1.0 uM
T1 sequence (Q00535 whole entry): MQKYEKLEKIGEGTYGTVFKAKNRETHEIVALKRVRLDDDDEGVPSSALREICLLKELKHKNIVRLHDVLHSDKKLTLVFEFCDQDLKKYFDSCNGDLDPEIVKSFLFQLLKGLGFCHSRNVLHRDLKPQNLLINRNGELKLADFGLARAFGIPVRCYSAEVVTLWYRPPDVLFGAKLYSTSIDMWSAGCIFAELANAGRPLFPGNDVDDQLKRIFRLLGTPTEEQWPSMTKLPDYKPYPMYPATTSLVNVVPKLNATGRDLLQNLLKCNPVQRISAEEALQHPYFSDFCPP
T1 sequence (Q15078 99-307 partner limits assumed): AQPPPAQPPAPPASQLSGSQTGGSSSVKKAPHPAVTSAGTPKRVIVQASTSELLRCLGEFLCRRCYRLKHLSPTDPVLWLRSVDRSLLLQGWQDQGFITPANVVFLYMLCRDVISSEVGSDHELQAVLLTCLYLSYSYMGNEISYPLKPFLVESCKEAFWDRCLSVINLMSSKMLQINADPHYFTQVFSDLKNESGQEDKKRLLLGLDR

[14] = biological target: Serine/threonine-protein kinase Nek1 (Homo sapiens) (UniProt Q96PY6); experiment: NEK1 ProQinase selectivity panel; conditions: Compound concentration 1.0 uM
[15] = biological target: Ribosomal protein S6 kinase alpha-2 (Homo sapiens) (UniProt Q15349); experiment: RPS6KA2 ProQinase selectivity panel; conditions: Compound concentration 1.0 uM
Ribosomal protein S6 kinase alpha-2 (Homo sapiens), sequence (Q15349 whole entry): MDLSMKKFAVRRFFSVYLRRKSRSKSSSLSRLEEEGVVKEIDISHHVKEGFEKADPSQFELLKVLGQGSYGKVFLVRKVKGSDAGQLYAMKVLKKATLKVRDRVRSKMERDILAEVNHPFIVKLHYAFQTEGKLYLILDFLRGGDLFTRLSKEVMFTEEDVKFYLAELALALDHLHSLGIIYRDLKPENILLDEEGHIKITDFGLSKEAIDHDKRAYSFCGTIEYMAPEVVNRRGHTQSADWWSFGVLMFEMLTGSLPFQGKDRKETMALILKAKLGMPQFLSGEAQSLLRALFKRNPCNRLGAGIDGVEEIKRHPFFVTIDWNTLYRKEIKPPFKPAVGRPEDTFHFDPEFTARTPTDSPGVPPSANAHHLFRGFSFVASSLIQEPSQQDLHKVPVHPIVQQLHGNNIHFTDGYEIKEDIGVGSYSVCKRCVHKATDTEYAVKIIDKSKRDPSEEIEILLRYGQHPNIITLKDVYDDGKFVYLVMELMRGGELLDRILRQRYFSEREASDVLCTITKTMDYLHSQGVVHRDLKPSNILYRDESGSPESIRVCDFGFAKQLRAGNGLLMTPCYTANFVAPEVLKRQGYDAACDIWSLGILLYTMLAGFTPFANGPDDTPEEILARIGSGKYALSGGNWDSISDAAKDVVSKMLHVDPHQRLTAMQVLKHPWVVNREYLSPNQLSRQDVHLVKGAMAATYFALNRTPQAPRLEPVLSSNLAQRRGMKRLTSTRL

[16] = biological target: Ribosomal protein S6 kinase alpha-1 (Homo sapiens) (UniProt Q15418); experiment: RPS6KA1 ProQinase selectivity panel; conditions: Compound concentration 1.0 uM
[17] = biological target: Mitogen-activated protein kinase kinase kinase 2 (Homo sapiens) (UniProt Q9Y2U5); experiment: MEKK2 ProQinase selectivity panel; conditions: Compound concentration 1.0 uM
[18] = biological target: D(4) dopamine receptor (Homo sapiens) (UniProt P21917); conditions: Compound concentration 10.0 uM
[19] = biological target: Calcium/calmodulin-dependent protein kinase type 1D (Homo sapiens) (UniProt Q8IU85); experiment: CAMK1D ProQinase selectivity panel; conditions: Compound concentration 1.0 uM
Calcium/calmodulin-dependent protein kinase type 1D (Homo sapiens), sequence (Q8IU85 whole entry, looked up): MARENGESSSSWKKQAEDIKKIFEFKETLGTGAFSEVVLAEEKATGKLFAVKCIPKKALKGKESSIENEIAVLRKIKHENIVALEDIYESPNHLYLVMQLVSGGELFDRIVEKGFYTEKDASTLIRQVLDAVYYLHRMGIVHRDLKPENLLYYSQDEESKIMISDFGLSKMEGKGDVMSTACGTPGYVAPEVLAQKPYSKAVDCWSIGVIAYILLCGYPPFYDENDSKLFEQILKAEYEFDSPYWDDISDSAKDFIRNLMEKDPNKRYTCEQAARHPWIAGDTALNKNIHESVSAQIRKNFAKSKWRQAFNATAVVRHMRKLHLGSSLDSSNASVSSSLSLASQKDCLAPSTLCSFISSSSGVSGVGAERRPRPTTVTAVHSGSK

[20] = biological target: Serine/threonine-protein kinase WNK3 (Homo sapiens) (UniProt Q9BYP7); experiment: WNK3 ProQinase selectivity panel; conditions: Compound concentration 1.0 uM
[21] = biological target: Ribosomal protein S6 kinase beta-1 (Homo sapiens) (UniProt P23443); experiment: S6K ProQinase selectivity panel; conditions: Compound concentration 1.0 uM
[22] = biological target: Mitogen-activated protein kinase 11 (Homo sapiens, UniProt Q15759); experiment: p38-beta ProQinase selectivity panel; conditions: Compound concentration 1.0 uM
[23] = biological target: MAP kinase-activated protein kinase 3 (Homo sapiens) (UniProt Q16644); experiment: MAPKAPK3 ProQinase selectivity panel; conditions: Compound concentration 1.0 uM
[24] = biological target: RAC-beta serine/threonine-protein kinase (Homo sapiens) (UniProt P31751); experiment: AKT2 ProQinase selectivity panel; conditions: Compound concentration 1.0 uM
[25] = biological target: T1, Cyclin-dependent kinase 5/CDK5 activator 1 (Homo sapiens); experiment: CDK5/p35NCK ProQinase selectivity panel; type: protein-complex assay; conditions: Compound concentration 1.0 uM
[26] = tested on: Tyrosine-protein kinase ABL1 (Homo sapiens), P00519 [Y253F]; experiment: ABL1 Y253F ProQinase selectivity panel; conditions: Compound concentration 1.0 uM
[27] = biological target: Protein kinase C zeta type (Homo sapiens) (UniProt Q05513); experiment: PKC-zeta ProQinase selectivity panel; conditions: Compound concentration 1.0 uM
Protein kinase C zeta type (Homo sapiens), sequence (Q05513 whole entry): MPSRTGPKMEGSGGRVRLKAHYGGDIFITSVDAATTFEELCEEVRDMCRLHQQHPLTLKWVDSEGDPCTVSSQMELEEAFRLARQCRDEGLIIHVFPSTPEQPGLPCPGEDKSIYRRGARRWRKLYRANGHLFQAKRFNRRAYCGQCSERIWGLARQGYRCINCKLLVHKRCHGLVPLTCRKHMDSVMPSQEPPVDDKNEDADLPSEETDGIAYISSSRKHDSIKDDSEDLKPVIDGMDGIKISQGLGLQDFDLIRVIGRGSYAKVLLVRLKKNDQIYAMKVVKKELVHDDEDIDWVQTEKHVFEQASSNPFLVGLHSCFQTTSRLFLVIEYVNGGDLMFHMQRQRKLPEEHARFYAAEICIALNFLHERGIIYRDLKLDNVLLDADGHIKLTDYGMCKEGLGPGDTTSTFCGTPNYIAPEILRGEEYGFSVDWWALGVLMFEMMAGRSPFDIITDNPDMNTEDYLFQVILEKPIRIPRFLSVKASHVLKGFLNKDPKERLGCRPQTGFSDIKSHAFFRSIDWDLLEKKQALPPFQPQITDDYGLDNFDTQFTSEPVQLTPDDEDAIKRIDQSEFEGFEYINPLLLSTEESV

[28] = biological target: 5-hydroxytryptamine receptor 1E (Homo sapiens) (UniProt P28566); conditions: Compound concentration 10.0 uM
[29] = biological target: Fibroblast growth factor receptor 1 (Homo sapiens) (UniProt P11362); experiment: FGF-R1 wt ProQinase selectivity panel; conditions: Compound concentration 1.0 uM
Fibroblast growth factor receptor 1 (Homo sapiens), sequence (P11362 22-822 limits assumed): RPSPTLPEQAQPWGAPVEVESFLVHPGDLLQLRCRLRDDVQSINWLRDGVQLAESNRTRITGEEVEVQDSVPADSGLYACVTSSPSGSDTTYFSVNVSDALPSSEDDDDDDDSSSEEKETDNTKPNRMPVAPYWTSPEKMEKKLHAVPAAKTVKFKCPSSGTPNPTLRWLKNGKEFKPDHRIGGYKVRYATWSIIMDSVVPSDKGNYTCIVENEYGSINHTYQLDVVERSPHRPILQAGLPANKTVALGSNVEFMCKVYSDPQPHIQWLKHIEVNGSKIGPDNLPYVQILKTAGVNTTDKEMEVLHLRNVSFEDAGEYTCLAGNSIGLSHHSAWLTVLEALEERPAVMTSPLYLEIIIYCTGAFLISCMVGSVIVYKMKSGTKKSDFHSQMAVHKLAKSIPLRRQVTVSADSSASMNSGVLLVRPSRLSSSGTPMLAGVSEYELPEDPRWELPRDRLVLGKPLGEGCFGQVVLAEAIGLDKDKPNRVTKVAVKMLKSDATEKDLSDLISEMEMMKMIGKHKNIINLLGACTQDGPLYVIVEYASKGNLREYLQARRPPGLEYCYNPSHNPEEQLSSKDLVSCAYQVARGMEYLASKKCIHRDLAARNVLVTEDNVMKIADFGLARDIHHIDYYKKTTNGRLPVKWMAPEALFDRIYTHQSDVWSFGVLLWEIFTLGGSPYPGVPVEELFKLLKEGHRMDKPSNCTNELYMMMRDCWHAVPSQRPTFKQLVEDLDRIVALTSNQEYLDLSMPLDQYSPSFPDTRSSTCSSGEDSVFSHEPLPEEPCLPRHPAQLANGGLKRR

[30] = biological target: Sigma intracellular receptor 2 (Homo sapiens, UniProt Q5BJF2); conditions: Compound concentration 10.0 uM
[31] = biological target: Dual specificity tyrosine-phosphorylation-regulated kinase 1B (Homo sapiens) (UniProt Q9Y463); experiment: DYRK1B ProQinase selectivity panel; conditions: Compound concentration 1.0 uM
[32] = biological target: Sodium-dependent dopamine transporter (Homo sapiens, UniProt Q01959); conditions: Compound concentration 10.0 uM
[33] = biological target: 5-hydroxytryptamine receptor 2A (Homo sapiens, UniProt P28223); experiment: GPCRScan assay: inhibition of 5-HT2A; set-up: radioligand conc. used [nm] 1.2 – 2.4, parental cells HEKT
5-hydroxytryptamine receptor 2A, sequence (P28223 whole entry): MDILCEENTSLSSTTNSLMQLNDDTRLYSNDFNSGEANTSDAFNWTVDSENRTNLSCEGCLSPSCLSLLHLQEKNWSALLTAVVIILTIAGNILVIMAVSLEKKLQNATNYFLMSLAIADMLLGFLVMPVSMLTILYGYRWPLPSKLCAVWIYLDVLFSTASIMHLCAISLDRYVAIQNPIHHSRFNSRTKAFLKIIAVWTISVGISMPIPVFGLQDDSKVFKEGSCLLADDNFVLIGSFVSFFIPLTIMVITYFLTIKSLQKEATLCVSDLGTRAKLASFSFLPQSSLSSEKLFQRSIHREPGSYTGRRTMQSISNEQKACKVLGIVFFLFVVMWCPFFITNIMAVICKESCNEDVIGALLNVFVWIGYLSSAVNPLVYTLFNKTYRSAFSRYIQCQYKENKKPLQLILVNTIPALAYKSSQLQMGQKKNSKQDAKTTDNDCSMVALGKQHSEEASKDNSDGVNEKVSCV

[34] = tested on: Hepatocyte growth factor receptor (Homo sapiens), P08581 [Y1230D]; experiment: MET Y1230D ProQinase selectivity panel; conditions: Compound concentration 1.0 uM
[35] = biological target: Mitogen-activated protein kinase kinase kinase 14 (Homo sapiens) (UniProt Q99558); experiment: NIK ProQinase selectivity panel; conditions: Compound concentration 1.0 uM
[36] = biological target: Serine/threonine-protein kinase PLK1 (Homo sapiens) (UniProt P53350); experiment: PLK1 ProQinase selectivity panel; conditions: Compound concentration 1.0 uM
[37] = biological target: Tyrosine-protein kinase ABL2 (Homo sapiens) (UniProt P42684); experiment: ABL2 ProQinase selectivity panel; conditions: Compound concentration 1.0 uM
[38] = biological target: Mitogen-activated protein kinase 12 (Homo sapiens) (UniProt P53778); experiment: p38-gamma ProQinase selectivity panel; conditions: Compound concentration 1.0 uM
[39] = biological target: Mitogen-activated protein kinase kinase kinase 3 (Homo sapiens) (UniProt Q99759); experiment: MEKK3 ProQinase selectivity panel; conditions: Compound concentration 1.0 uM
[40] = biological target: Vascular endothelial growth factor receptor 3 (Homo sapiens) (UniProt P35916); experiment: VEGF-R3 ProQinase selectivity panel; conditions: Compound concentration 1.0 uM
[41] = biological target: Ephrin type-A receptor 2 (Homo sapiens) (UniProt P29317); experiment: EPHA2 ProQinase selectivity panel; conditions: Compound concentration 1.0 uM
[42] = biological target: Serine/threonine-protein kinase Nek9 (Homo sapiens) (UniProt Q8TD19); experiment: NEK9 ProQinase selectivity panel; conditions: Compound concentration 1.0 uM
[43] = biological target: Interleukin-1 receptor-associated kinase 1 (Homo sapiens) (UniProt P51617); experiment: IRAK1 ProQinase selectivity panel; conditions: Compound concentration 1.0 uM
[44] = biological target: 5-hydroxytryptamine receptor 2B (Homo sapiens, UniProt P41595); experiment: GPCRScan assay: inhibition of 5-HT2B; set-up: radioligand conc. used [nm] 1.0 – 2.0, parental cells stable HEK
5-hydroxytryptamine receptor 2B, sequence (P41595 whole entry): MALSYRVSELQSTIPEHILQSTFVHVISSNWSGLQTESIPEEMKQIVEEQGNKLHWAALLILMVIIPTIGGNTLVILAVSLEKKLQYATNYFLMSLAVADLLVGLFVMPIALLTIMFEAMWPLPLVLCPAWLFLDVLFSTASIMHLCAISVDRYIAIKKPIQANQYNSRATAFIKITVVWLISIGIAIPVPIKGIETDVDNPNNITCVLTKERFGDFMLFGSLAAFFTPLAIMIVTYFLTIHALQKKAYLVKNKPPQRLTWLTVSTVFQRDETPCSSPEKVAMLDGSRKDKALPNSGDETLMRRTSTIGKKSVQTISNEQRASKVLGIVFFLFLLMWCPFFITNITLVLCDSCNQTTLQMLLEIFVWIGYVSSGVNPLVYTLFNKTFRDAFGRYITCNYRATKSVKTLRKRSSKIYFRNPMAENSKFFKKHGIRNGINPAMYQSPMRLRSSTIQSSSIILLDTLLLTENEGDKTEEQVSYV

[45] = biological target: Ephrin type-B receptor 2 (Homo sapiens) (UniProt P29323); experiment: EPHB2 ProQinase selectivity panel; conditions: Compound concentration 1.0 uM
Ephrin type-B receptor 2 (Homo sapiens), sequence (P29323 whole entry): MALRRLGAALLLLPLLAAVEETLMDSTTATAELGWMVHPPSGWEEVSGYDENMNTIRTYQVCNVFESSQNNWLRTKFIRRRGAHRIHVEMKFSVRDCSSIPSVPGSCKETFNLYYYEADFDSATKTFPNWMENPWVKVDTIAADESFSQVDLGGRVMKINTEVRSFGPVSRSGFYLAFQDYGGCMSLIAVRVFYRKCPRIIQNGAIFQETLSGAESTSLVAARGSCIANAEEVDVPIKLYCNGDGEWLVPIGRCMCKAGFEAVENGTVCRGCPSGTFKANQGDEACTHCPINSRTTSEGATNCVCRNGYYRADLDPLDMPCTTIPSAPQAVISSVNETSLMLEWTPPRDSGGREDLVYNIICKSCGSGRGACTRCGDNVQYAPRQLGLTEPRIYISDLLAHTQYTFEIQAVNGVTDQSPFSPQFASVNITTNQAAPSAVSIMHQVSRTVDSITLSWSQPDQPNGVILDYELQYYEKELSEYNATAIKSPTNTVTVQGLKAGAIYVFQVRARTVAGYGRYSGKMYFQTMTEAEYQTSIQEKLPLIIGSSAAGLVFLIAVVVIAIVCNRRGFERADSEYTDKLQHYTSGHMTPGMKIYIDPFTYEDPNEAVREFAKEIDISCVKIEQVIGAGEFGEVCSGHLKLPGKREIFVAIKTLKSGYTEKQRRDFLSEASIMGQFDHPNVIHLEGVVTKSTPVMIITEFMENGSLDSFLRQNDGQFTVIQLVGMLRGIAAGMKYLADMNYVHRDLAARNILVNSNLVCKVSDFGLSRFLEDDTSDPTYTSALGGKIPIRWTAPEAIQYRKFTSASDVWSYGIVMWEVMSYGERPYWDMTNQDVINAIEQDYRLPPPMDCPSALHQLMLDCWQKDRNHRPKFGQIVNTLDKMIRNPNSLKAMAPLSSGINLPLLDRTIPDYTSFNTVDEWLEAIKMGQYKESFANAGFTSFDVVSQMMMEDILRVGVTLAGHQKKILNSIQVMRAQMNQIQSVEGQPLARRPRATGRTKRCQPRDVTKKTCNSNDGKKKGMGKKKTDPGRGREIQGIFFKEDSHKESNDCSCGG

[46] = biological target: Protein kinase C gamma type (Homo sapiens) (UniProt P05129); experiment: PKC-gamma ProQinase selectivity panel; conditions: Compound concentration 1.0 uM
[47] = biological target: Ephrin type-B receptor 4 (Homo sapiens) (UniProt P54760); experiment: EPHB4 ProQinase selectivity panel; conditions: Compound concentration 1.0 uM

Structure (SMILES): O=C1c2ccc(Nc3ccc(F)cc3F)cc2CCc2ccc(OC[C@H](O)CO)cc21 [Skepinone-L]
- % Residual activity with Skepinone-L [1]: 103%
- % Residual activity with Skepinone-L [2]: 86%
- % Residual activity with Skepinone-L [3]: 106%
- inhibition [4]: 10.9%
- % Residual activity with Skepinone-L [5]: 93%
- % Residual activity with Skepinone-L [6]: 97%
- % Residual activity with Skepinone-L [7]: 94%
- % Residual activity with Skepinone-L [8]: 104%
- % Residual activity with Skepinone-L [9]: 141%
- % Residual activity with Skepinone-L [10]: 102%
- % Residual activity with Skepinone-L [11]: 106%
- inhibition [12]: 8.2%
- % Residual activity with Skepinone-L [13]: 99%
- % Residual activity with Skepinone-L [14]: 83%
- % Residual activity with Skepinone-L [15]: 90%
- % Residual activity with Skepinone-L [16]: 89%
- % Residual activity with Skepinone-L [17]: 89%
- inhibition [18]: 9.38%
- % Residual activity with Skepinone-L [19]: 106%
- % Residual activity with Skepinone-L [20]: 100%
- % Residual activity with Skepinone-L [21]: 85%
- % Residual activity with Skepinone-L [22]: 3%
- % Residual activity with Skepinone-L [23]: 95%
- % Residual activity with Skepinone-L [24]: 121%
- % Residual activity with Skepinone-L [25]: 90%
- % Residual activity with Skepinone-L [26]: 88%
- % Residual activity with Skepinone-L [27]: 109%
- inhibition [28]: 18.8%
- % Residual activity with Skepinone-L [29]: 117%
- inhibition [30]: 53.1%
- % Residual activity with Skepinone-L [31]: 102%
- inhibition [32]: 81.4%
- pKi ([33]; read-out: Ki): 5.43
- Ki ([33]; read-out: pKi (converted)): 3.39 µM
- % Residual activity with Skepinone-L [34]: 95%
- % Residual activity with Skepinone-L [35]: 96%
- % Residual activity with Skepinone-L [36]: 97%
- % Residual activity with Skepinone-L [37]: 99%
- % Residual activity with Skepinone-L [38]: 102%
- % Residual activity with Skepinone-L [39]: 96%
- % Residual activity with Skepinone-L [40]: 100%
- % Residual activity with Skepinone-L [41]: 119%
- % Residual activity with Skepinone-L [42]: 104%
- % Residual activity with Skepinone-L [43]: 101%
- pKi ([44]; read-out: Ki): 6.76
- Ki ([44]; read-out: pKi (converted)): 166 nM
- % Residual activity with Skepinone-L [45]: 91%
- % Residual activity with Skepinone-L [46]: 99%
- % Residual activity with Skepinone-L [47]: 128%
